Columns and labels:
HeLa cells = assay: Cytotoxicity / cell death; format: cell-based; details: data not shown
14-3-3 proteins = assay: Binding to 14-3-3 proteins (data not shown)
SKP2 = SKP2 (Homo sapiens, UniProt Q13309); assay: Binding to SKP2 (data not shown)
Pin1 = Pin1 (Homo sapiens, UniProt Q13526); assay: Binding to Pin1 (data not shown)
SCF^β-TrCP1 = SCF^β-TrCP1 (Homo sapiens, UniProt Q9Y297); assay: In vitro ubiquitination assay (GST-Wee1KR substrate, immunoblotting); format: biochemical; details: immunoblots quantitated by ImageJ
Chain of SCF^β-TrCP1 (Q9Y297 whole entry): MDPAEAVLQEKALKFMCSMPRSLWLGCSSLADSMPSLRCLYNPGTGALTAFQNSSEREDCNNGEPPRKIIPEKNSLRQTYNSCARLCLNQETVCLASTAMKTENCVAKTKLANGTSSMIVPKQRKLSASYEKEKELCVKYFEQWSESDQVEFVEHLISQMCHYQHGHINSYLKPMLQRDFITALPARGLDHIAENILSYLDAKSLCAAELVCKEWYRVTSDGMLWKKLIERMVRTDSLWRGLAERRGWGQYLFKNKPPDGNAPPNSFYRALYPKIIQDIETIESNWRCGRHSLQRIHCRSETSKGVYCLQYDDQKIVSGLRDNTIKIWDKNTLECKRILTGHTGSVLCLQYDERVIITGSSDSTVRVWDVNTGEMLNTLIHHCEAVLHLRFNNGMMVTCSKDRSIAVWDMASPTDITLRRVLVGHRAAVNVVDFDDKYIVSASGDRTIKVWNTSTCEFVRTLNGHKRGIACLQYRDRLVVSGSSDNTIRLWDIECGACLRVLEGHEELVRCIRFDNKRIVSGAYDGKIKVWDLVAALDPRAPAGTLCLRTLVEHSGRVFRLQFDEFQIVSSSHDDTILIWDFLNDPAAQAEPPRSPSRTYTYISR
Chain of SCF^β-TrCP1 (P63208 whole entry partner): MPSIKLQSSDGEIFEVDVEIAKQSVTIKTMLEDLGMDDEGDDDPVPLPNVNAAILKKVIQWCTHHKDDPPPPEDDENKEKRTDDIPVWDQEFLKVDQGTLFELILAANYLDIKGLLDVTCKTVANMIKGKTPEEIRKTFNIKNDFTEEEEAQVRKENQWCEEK
Chain of SCF^β-TrCP1 (Q13616 whole entry partner): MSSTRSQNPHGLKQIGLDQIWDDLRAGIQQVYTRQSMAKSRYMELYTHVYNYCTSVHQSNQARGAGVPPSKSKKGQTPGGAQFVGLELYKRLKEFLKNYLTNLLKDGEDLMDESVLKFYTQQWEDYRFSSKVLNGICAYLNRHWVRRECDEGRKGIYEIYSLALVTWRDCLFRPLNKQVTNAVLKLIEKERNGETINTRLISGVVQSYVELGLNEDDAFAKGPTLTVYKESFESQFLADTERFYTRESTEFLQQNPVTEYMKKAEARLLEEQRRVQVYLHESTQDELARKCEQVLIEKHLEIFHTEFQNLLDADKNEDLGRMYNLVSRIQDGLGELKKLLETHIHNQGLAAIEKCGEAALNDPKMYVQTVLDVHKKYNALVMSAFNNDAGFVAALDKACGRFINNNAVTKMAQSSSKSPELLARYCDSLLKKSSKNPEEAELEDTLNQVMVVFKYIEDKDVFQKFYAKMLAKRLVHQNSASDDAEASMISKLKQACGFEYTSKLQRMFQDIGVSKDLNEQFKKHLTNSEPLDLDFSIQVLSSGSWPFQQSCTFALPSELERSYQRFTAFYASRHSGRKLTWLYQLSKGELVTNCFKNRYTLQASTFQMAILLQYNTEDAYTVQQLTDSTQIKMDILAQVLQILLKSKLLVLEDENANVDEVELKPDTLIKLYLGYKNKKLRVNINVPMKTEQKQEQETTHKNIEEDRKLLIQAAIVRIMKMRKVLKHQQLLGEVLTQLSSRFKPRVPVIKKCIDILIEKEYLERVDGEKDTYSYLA
Chain of SCF^β-TrCP1 (P62877 whole entry partner): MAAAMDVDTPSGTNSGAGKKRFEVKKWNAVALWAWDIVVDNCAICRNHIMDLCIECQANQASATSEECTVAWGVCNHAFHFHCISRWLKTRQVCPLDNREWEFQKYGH
Protocol: Components of SCF complex (SKP1, Cul1, Rbx1, and hemagglutinin (HA)-tagged β-TrCP) were expressed in HEK293T cells. Anti-HA antibody was added into the SCF complexes expressed HEK 293T cell lysate and rotated at 4°C for 1 h. Aliquots of this mixture were added to protein G beads and rotated at 4°C for 30 min. After washing the beads in cell lysis buffer three times, the tube was centrifuged at 20,400 × g for 5 min and the supernatant was discarded. The protein on the beads was used as recombinant SCF^β-TrCP complexes. Aliquots of SCF complexes bound on the beads were then added to ubiquitination reactions (10 mM Tris pH = 7.5, 5 mM MgCl2, 1 mM DTT, 1 mM ATP, 20 mM creatine phosphate, 0.1 mg/mL creatine kinase, 5 mM NaF, 1 mM Na3VO4, 2 mg/mL ubiquitin, 0.5 μg E1 enzyme, 2 μg E2 enzyme) in a final volume of 30 µL. Compounds of 100 µM final concentration were added to reactions, and GST-Wee1KR was added as substrate 15 min later. The reaction mixtures were incubated at 37°C for 2 h and were further examined by immunoblotting.
Immunoblotting followed by in vitro ubiquitination assay was performed using anti-human Wee1A [30]. Immunoblotting in the analysis of protein degradation was performed using anti-phospho-β-catenin (Ser33/37/Thr41) antibody (1:1000, Cell Signaling Technology, Danvers, MA, USA), anti-phospho-IκBα (Ser32) (14D4), Rabbit mAb (1:1000, Cell Signaling Technology), anti-β-catenin (D10A8) (1:1000, Cell Signaling Technology), anti-IκBα antibody (1:1000, Cell Signaling Technology), and Goat polyclonal anti-rabbit IgG antibody (1:5000, Proteintech, Am Klopferspitz, Planegg-Martinsried, Germany). The transferred membrane was incubated with specific antibody, then detected using Super Signal West Pico chemiluminescent substrate (Thermo Fisher Scientific) and FUSION SOLO S (VILBER LOURMAT/MS equipment, Zi Sud torcy, Marne-la-vallee, France). The quantification of immunoblotting results was performed using ImageJ software.

[1] = test system: NF-κB transcription activity in HeLa cells; assay: NF-κB luciferase reporter assay (pGL-4.32), TNF-α induced; format: cell-based
Protocol: For NF-κB transcription activity, PGL-4.32 contains five copies of the NF-κB response element, which is responsible for the transcription of the luciferase reporter gene, with pRL-SV40 as the internal control. NF-κB transcription activity was determined by firefly luciferase expression and normalized by renilla luciferase level. pGL-4.32 reporter plasmids (Promega) and pRL-sv40 renilla luciferase reporter (Promega) were co-transfected into HeLa cells using Lipofectamine 3000 reagent kit. Subsequently, 24 h after transfection, cells were cultured with the compounds of different dilutions for another 24 h. Furthermore, TNF-α was added, and the plates were cultured for another 4 h. The cells were lysed, and the luminescence was measured using the Luciferase Assay System. A minimum of three samples were taken for each sample.

polo-box domain of Plk1 = polo-box domain of Plk1 (Homo sapiens, UniProt P53350); assay: Binding to polo-box domain of Plk1 (data not shown)
Chain of polo-box domain of Plk1 (P53350 326-603 limits assumed): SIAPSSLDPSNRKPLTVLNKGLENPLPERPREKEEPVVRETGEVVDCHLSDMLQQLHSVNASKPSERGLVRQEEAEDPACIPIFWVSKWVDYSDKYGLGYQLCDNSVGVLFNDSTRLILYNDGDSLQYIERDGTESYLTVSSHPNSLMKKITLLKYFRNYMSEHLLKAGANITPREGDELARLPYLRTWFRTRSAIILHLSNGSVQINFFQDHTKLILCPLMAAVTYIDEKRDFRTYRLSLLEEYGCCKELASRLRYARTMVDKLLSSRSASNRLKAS

Chain of Pin1 (Q13526 whole entry, species assumed): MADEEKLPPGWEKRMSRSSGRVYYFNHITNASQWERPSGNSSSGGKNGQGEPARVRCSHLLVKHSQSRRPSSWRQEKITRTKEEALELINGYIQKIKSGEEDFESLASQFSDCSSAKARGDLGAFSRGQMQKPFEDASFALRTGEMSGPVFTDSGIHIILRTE
Chain of SKP2 (Q13309 whole entry, species assumed): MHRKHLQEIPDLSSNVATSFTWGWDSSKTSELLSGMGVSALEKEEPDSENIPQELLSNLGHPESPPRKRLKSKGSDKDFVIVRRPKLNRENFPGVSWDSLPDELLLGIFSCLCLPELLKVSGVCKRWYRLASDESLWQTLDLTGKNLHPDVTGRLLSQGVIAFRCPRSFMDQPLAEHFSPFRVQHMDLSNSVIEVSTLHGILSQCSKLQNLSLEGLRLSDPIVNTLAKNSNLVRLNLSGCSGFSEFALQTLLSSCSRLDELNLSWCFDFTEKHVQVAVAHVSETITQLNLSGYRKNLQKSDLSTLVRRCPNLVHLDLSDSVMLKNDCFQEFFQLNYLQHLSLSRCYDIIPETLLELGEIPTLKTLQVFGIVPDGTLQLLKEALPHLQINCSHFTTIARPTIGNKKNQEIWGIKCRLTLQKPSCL

Cc1cc(O)c(C(=O)/C=C/c2cccc(O)c2)c(=O)o1 [NPD5943] was tested, and the non-specific cytotoxicity (HeLa cells) was “cytotoxicity only at high concentration”, the “binding to 14-3-3 proteins” value (14-3-3 proteins) was “did not observe any binding” and the “binding to SKP2” value (SKP2) was “did not bind to SKP2 at all”. The “binding to Pin1” value (Pin1) was “did not observe any binding”, the IC50 (SCF^β-TrCP1) was 30 µM and the “NF-κB transcription, % of that of the control group (DMSO, TNF-α)” value ([1]; 20 μM) was “approximately 20%”. For the same compound, the “TNF-α induced NF-κB activation of transcription” value ([1]; 24 h compound then TNF-α 4 h) was “reduced NF-κB activation dose-dependently” and the “binding to polo-box domain of Plk1” value (polo-box domain of Plk1) was “did not observe any binding”.
